# Molecular target: Platelet-activating factor receptor (Oryctolagus cuniculus)
# Assay: Antagonistic activity was tested against Platelet-Activating Factor-induced aggregation of rabbit washed platelets.
row,Compound,IC50 [nM]
1,"Cc1nc2cnccc2n1-c1ccc(I)cc1 [1-(4-Iodo-phenyl)-2-methyl-1H-imidazo[4,5-c]pyridine]",67
2,"Cc1nc2cnccc2n1-c1ccc(C2=Nc3ccccc3N(C)C(=O)C2)cc1 [1-Methyl-4-[4-(2-methyl-imidazo[4,5-c]pyridin-1-yl)-phenyl]-1,3-dihydro-benzo[b][1,4]diazepin-2-one]",4.9
3,"Cc1nc2cnccc2n1-c1ccc(-c2nnc(-c3ccccc3)o2)cc1 [2-Methyl-1-[4-(5-phenyl-[1,3,4]oxadiazol-2-yl)-phenyl]-1H-imidazo[4,5-c]pyridine]",44
4,"Cc1nc2cnccc2n1-c1ccccc1 [2-Methyl-1-phenyl-1H-imidazo[4,5-c]pyridine]",840
5,"Cc1nc2cnccc2n1-c1ccc(C2=Nc3ccccc3C(=O)CC2)cc1 [2-[4-(2-Methyl-imidazo[4,5-c]pyridin-1-yl)-phenyl]-1,4-dihydro-benzo[b]azepin-5-one]",15
6,"Cc1nc2cnccc2n1-c1ccc(C2=NC3CCCCC3NC(=O)C2)cc1 (centres undefined) [4-[4-(2-Methyl-imidazo[4,5-c]pyridin-1-yl)-phenyl]-1,5,5a,6,7,8,9,9a-octahydro-benzo[b][1,4]diazepin-2-one]",200
7,"Cc1nc2cnccc2n1-c1ccc(-c2cc(=O)n3[nH]ccc3n2)cc1 [5-[4-(2-Methyl-imidazo[4,5-c]pyridin-1-yl)-phenyl]-4H-pyrazolo[1,5-a]pyrimidin-7-one]",2800
8,"Cc1nc2cnccc2n1-c1ccc(C2CC(=O)N(C)c3cc(Cl)c(Cl)cc3C2)cc1 (centres undefined) [7,8-Dichloro-1-methyl-4-[4-(2-methyl-imidazo[4,5-c]pyridin-1-yl)-phenyl]-1,3,4,5-tetrahydro-benzo[b]azepin-2-one]",0.5
9,"Cc1nc2cnccc2n1-c1ccc(C2CC(=O)Nc3cc(Cl)c(Cl)cc3C2)cc1 (centres undefined) [7,8-Dichloro-4-[4-(2-methyl-imidazo[4,5-c]pyridin-1-yl)-phenyl]-1,3,4,5-tetrahydro-benzo[b]azepin-2-one]",0.5
10,"Cc1nc2cnccc2n1-c1ccc(C2=Nc3cc(Cl)c(Cl)cc3NC(=S)C2)cc1 [7,8-Dichloro-4-[4-(2-methyl-imidazo[4,5-c]pyridin-1-yl)-phenyl]-1,3-dihydro-benzo[b][1,4]diazepine-2-thione]",0.5
11,"Cc1cc2c(cc1C)NC(=O)CC(c1ccc(-n3c(C)nc4cnccc43)cc1)=N2 [7,8-Dimethyl-4-[4-(2-methyl-imidazo[4,5-c]pyridin-1-yl)-phenyl]-1,3-dihydro-benzo[b][1,4]diazepin-2-one]",0.7
12,"Cc1cc2c(cc1C)N=C(c1ccc(-n3c(C)nc4cnccc43)cc1)CC(N)=N2 [7,8-Dimethyl-4-[4-(2-methyl-imidazo[4,5-c]pyridin-1-yl)-phenyl]-1,3-dihydro-benzo[b][1,4]diazepin-(2E)-ylideneamine]",1.9
13,"Cc1cc2c(cc1C)NC(=S)CC(c1ccc(-n3c(C)nc4cnccc43)cc1)=N2 [7,8-Dimethyl-4-[4-(2-methyl-imidazo[4,5-c]pyridin-1-yl)-phenyl]-1,3-dihydro-benzo[b][1,4]diazepine-2-thione]",0.6
14,"Cc1nc2cnccc2n1-c1ccc(C2=NCCNC(=O)C2)cc1 [7-[4-(2-Methyl-imidazo[4,5-c]pyridin-1-yl)-phenyl]-1,2,3,4-tetrahydro-[1,4]diazepin-5-one]",2600

# — BindingDB's records for doi:10.1021/jm00018a011 (Pfizer, 1995)
